Values joined by “and” are separate entries in the source; they are usually repeats but may differ in a detail not shown here. Equal values may be shown once. Read-outs that look alike come from different tables or passages of the source.
Legend:
[1] = system: PBMCs from healthy donors; assay: PBMC assay, dose-dependent cytokine induction; type: cell-based; settings: Homo sapiens, 24 h
Procedure: Compounds I-A to IV were additionally tested on PBMCs from healthy donors to determine the dose-dependent cytokine induction. PBMCs from buffy coats were thawed on the day of the experiment and seeded with a density of 5×10^5 cells per well (96-well format, RPMI with 5% Human Serum+1% MEM Non-Essential Amino Acids+1% Sodium Pyruvate). In line with the experiment above, a serial dilution of the compounds was prepared and added to the cells for 24 hours. On the next days, cells were centrifuged and supernatants harvested for a cytokine readout based on a multiplex assay kit from mesoscale discovery (customized multiplex panel for the cytokines: IFNα2a, IFNβ, TNFα and IL6). Impact on cell viability was determined by CellTiter Glo2.0 from promega (Cat. G9241). Both experimental read outs were performed according to the manufacturer's instructions.

[2] = system: STING signaling (IRF and NFKB-pathway activation) in THP1 Dual Cells; assay: THP-1 assay (THP1 Dual reporter cells, IRF / NFkB pathway activation); type: cell-based; settings: for EC50: Homo sapiens, THP1 Dual cells
Procedure: THP1 Dual Cells™, were purchased from Invivogen (Cat. thpd-nfis), and used to determine the biological activity of the compounds on a molecular level and to determine downstream activation of STING signaling (IRF and NFKB-pathway activation). Briefly, cultured cells were seeded on the day of the experiment with a density of 1×10^5 cells per well (96-well format in RPMI supplemented with 25 mM HEPES, 10% heat inactivated FCS,). A serial dilution of the compounds was prepared and added to the cells for a total incubation time of 24 hours. The test items were tested in 8 concentrations to determine a dose-dependent activation of the NFKB and the IRF pathway. After 24 h cells were centrifuged and supernatants harvested for the detection of secreted alkaline phosphatase (measured by QUANTI-Blue™ detection solution; Cat. rep-qbs Invivogen) or lucia luciferase (measured by QUANTI-Luc™ reagent; Cat. rep-qlc1, Invivogen), respectively. The read outs were be performed according to the manufacturer's instructions. EC50 values were calculated using GraphPad Prism 9.

[3] = Solubility in PBS and HEPES buffer; type: physicochemical; settings: for solubility: aqueous buffer
Source text: The primary differences are that Compound XX is less hydrophobic as a result of the introduction of oxazolyl heterocyclic ring in place of the pyrazolyl heterocyclic ring of Compound XV and as a result of the introduction of an imidazopyridine ring in place of the benzimidazole ring of Compound XV.

[4] = system: HEK293 cells with a knocked-in STING receptor (IRF and IFNβ-pathway activation); assay: HEK STING assay with and without PFO (membrane permeabilization); type: cell-based; settings: for EC50: Homo sapiens
[5] = IFNβ in supernatant, read-out: PBMC EC50 (μM) for IFNβ
[6] = 24 h incubation, IRF pathway, read-out: THP-1 EC50 (IRF)
[7] = IFNα in supernatant, read-out: PBMC EC50 (μM) for IFNα
[8] = HEPES Buffer pH 7.0, read-out: Solubility HEPES Buffer pH 7.0
[9] = IRF pathway, read-out: THP-1 IRF EC50
[10] = NFkB pathway, read-out: THP-1 NFkB EC50
[11] = HEK293, read-out: HEK STING EC50 no PFO [nM]
[12] = HEK293, read-out: HEK STING EC50 with PFO [nM]

Compound `CCn1nc(C)cc1C(=O)Nc1nc2cc(C(N)=O)cc(OC)c2n1C/C=C/Cn1c(NC(=O)c2cc(C)nn2CC)nc2cc(C(N)=O)cc(OCCCC(=O)N(C)N)c21` [I-B] has an EC50 [1, 5] of 0.403 µM.
For `CCn1nc(C)cc1C(=O)Nc1nc2cc(C(N)=O)cc(OC)c2n1C/C=C/Cn1c(NC(=O)c2cc(C)nn2CC)nc2cc(C(N)=O)cc(OCCCC(=O)N(N)CCN)c21` [I-J], the EC50 [2, 6] was 23.4 nM, the EC50 [1, 7] was 0.321 µM and the EC50 [1, 5] was 0.293 µM.
Work on `CCn1nc(C)cc1C(=O)Nc1nc2cc(C(N)=O)cc(OC)c2n1C/C=C/Cn1c(NC(=O)c2cc(C)nn2CC)nc2cc(C(N)=O)cc(OCCCC(=O)NNCc3ccc(N)cc3)c21` [I-F] yielded an EC50 [1, 5] of 0.209 µM.
For `CCn1nc(C)cc1C(=O)Nc1nc2cc(C(N)=O)cc(OC)c2n1C/C=C/Cn1c(NC(=O)c2cc(C)nn2CC)nc2cc(C(N)=O)cc(OCCCN(C)N)c21` [Compound XV], the “Solubility PBS Buffer pH 7.4” value ([3]; PBS Buffer pH 7.4) was “<LOQ”, the “Solubility PBS Buffer pH 7.4” value ([3]; PBS Buffer pH 7.4, lower limit of quantitation 1 μM) was “<LOQ^#” and the solubility [3, 8] was 5.9 µM and 5 µg/mL.
Compound `CCn1nc(C)cc1C(=O)Nc1nc2cc(C(N)=O)cc(OC)c2n1C/C=C/Cn1c(NC(=O)c2cc(C)nn2CC)nc2cc(C(N)=O)cc(OCCCC(=O)NO)c21` [I-G] has an EC50 [1, 7] of 2.02 µM and an EC50 [1, 5] of 0.311 µM.
With `CCn1nc(C)cc1C(=O)Nc1nc2cc(CO)cc(OC)c2n1C/C=C/Cn1c(NC(=O)c2cc(C)nn2CC)nc2cc(C(N)=O)cc(OCCCN3CCOCC3)c21` [Compound XL, (E)-2-(1-ethyl-3-methyl-1H-pyrazole-5-carboxamido)-1-(4-(2-(1-ethyl-3-methyl-1H-pyrazole-5-carboxamido)-5-(hydroxymethyl)-7-methoxy-1H-benzo[d]imidazol-1-yl)but-2-en-1-yl)-7-(3-morpholinopropoxy)-1H-benzo[d]imidazole-5-carboxamide] the “THP-1 IRF MEC” value ([2]; Activity w/o permeabilization) was 78 nM, the “THP-1 NFkB MEC” value ([2]; Activity w/o permeabilization) was 78 nM and the EC50 [2, 9] was 221 nM. The EC50 [2, 10] was 149 nM, the “HEK IFNβ MEC” value ([4]; Activity w/o permeabilization) was 0.8 nM and the “HEK IFNβ MEC” value ([4]; Activity with permeabilization) was 4.0 nM. For the same compound, the EC50 ([4]; HEK293, Activity w/o permeabilization, read-out: HEK IRF EC50) was 0.53 nM, the EC50 ([4]; HEK293, Activity with permeabilization, read-out: HEK IRF EC50) was 1.11 nM and the EC50 [4, 11] was 2.7 nM. It also gave an EC50 [4, 12] of 2.7 nM.
`CCn1nc(C)cc1C(=O)Nc1nc2cc(C(N)=O)cc(OC)c2n1C/C=C/Cn1c(NC(=O)c2cc(C)nn2CC)nc2cc(C(N)=O)cc(OCCCC(=O)N(N)Cc3ccc(N)cc3)c21` [I-E] gave an EC50 [1, 7] of 0.762 µM and an EC50 [1, 5] of 0.139 µM.
With `CCn1nc(C)cc1C(=O)Nc1nc2cc(C(N)=O)cc(OC)c2n1C/C=C/Cn1c(NC(=O)c2cc(C)nn2CC)nc2cc(C(N)=O)cc(OCCCC(=O)N(C)O)c21` [I-H] the EC50 [1, 7] was 0.665 µM and the EC50 [1, 5] was 0.249 µM.
`CCn1nc(C)cc1C(=O)Nc1nc2cc(C(=O)NN)cc(OC)c2n1C/C=C/Cn1c(NC(=O)c2cc(C)nn2CC)nc2cc(C(N)=O)cc(OCCCN3CCOCC3)c21` [II-A] gave an EC50 [2, 6] of 84.9 nM, an EC50 [1, 7] of 0.875 µM and an EC50 [1, 5] of 0.403 µM.
In the case of `CCn1nc(C)cc1C(=O)Nc1nc2cc(C(N)=O)cc(OC)c2n1C/C=C/Cn1c(NC(=O)c2cc(C)nn2CC)nc2cc(C(N)=O)cc(OCCCC(=O)N(C)OC)c21` [I-I], the EC50 [1, 7] is reported as 0.41 µM and the EC50 [1, 5] is reported as 0.212 µM.
With `CCn1nc(C)cc1C(=O)Nc1nc2cc(C(N)=O)cc(OC)c2n1C/C=C/Cn1c(NC(=O)c2cc(C)nn2CC)nc2cc(C(N)=O)cc(OCCCN3CCOCC3)c21` [diABZI, reference compound] the EC50 [2, 9] was 16 nM, the EC50 [2, 10] was 14 nM and the EC50 [4, 11] was 1.6 nM. The EC50 [4, 12] was 1.2 nM.
For `CCn1nc(C)cc1C(=O)Nc1nc2cc(C(=O)N(C)N)cc(OC)c2n1C/C=C/Cn1c(NC(=O)c2cc(C)nn2CC)nc2cc(C(N)=O)cc(OCCCN3CCOCC3)c21` [II-C], the EC50 [2, 6] was 267 nM, the EC50 [1, 7] was 1.15 µM and the EC50 [1, 5] was 0.91 µM.
For `CCc1nc(C)oc1C(=O)Nc1nc2cc(C(N)=O)cnc2n1C/C=C/Cn1c(NC(=O)c2oc(C)nc2CC)nc2cc(C(N)=O)cc(OCCCN(C)N)c21` [Compound XX], the “Solubility versus Compound XV” value ([3]; Compound XX compared with Compound XV) was “slightly better solubility”, the solubility [3, 8] was 11.5 µM and 10 µg/mL and the solubility ([3]; PBS Buffer pH 7.4, lower limit of quantitation 1 μM, read-out: Solubility PBS Buffer pH 7.4) was 3.6 µM. For the same compound, the solubility ([3]; PBS Buffer pH 7.4, read-out: Solubility PBS Buffer pH 7.4) was 3 µg/mL.
Work on `CCn1nc(C)cc1C(=O)Nc1nc2cc(CN)cc(OC)c2n1C/C=C/Cn1c(NC(=O)c2cc(C)nn2CC)nc2cc(C(N)=O)cc(OCCCN3CCOCC3)c21` [Compound XLI, 1-[(2E)-4-[5-(Aminomethyl)-2-(1-ethyl-3-methyl-1H-pyrazole-5-amido)-7-methoxy-1H-1,3-benzodiazol-1-yl]but-2-en-1-yl]-2-(1-ethyl-3-methyl-1H-pyrazole-5-amido)-7-[3-(morpholin-4-yl)propoxy]-1H-1,3-benzodiazole-5-carboxamide] yielded an EC50 [2, 9] of 811 nM, an EC50 [2, 10] of 364 nM and an EC50 [4, 11] of 38 nM. It also gave an EC50 [4, 12] of 25 nM.
Work on `CCn1nc(C)cc1C(=O)Nc1nc2cc(C(N)=O)cc(OC)c2n1C/C=C/Cn1c(NC(=O)c2cc(C)nn2CC)nc2cc(C(N)=O)cc(OCCCC(=O)NNC)c21` [I-C] yielded an EC50 [1, 5] of 1.1 µM.
`CCn1nc(C)cc1C(=O)Nc1nc2cc(C(N)=O)cc(OC)c2n1C/C=C/Cn1c(NC(=O)c2cc(C)nn2CC)nc2cc(C(N)=O)cc(OCCCC(=O)N3CCN(N)CC3)c21` [I-K] gave an EC50 [2, 6] of 9.74 nM, an EC50 [1, 7] of 0.302 µM and an EC50 [1, 5] of 0.234 µM.
`CCc1nc(C)oc1C(=O)Nc1nc2cc(CO)cc(OC)c2n1C/C=C/Cn1c(NC(=O)c2oc(C)nc2CC)nc2cc(C(N)=O)cc(OCCCN3CCOCC3)c21` [Compound XLII, (E)-N-(5-carbamoyl-1-(4-(2-(4-ethyl-2-methyloxazole-5-carboxamido)-5-(hydroxymethyl)-7-methoxy-1H-benzo[d]imidazol-1-yl)but-2-en-1-yl)-7-(3-morpholinopropoxy)-1H-benzo[d]imidazol-2-yl)-4-ethyl-2-methyloxazole-5-carboxamide] gave an EC50 [2, 9] of 333 nM, an EC50 [2, 10] of 290 nM and an EC50 [4, 11] of 26 nM. The EC50 [4, 12] was 14 nM.
In the case of `CCn1nc(C)cc1C(=O)Nc1nc2cc(C(N)=O)cc(OC)c2n1C/C=C/Cn1c(NC(=O)c2cc(C)nn2CC)nc2cc(C(N)=O)cc(OCCCC(=O)NN)c21` [I-A], the EC50 [1, 7] is reported as 0.334 µM and the EC50 [1, 5] is reported as 1.25 µM.
